This note sets out measurements from PMC12341765, “Microenvironment-triggered multimodal precision diagnostics” (Nature materials, 2021).

Structures are written as SMILES.

Assay [1] concerns MC26 CRC lung tumors. Kind of assay: 5-FU treatment of CRC lung disease model, monitored with PRISM (urine, PET-CT). Type of assay: in vivo, BALB/c mice. To be noted: 5-FU 15 mg/kg i.p.
Method: 5-Fluorouracil (5-FU) was purchased (Sigma-Aldrich) and prepared as previously described.[47] 5-FU or vehicle control (DMSO) was administered by intraperitoneal injection at in a 0.2 mL volume starting 1 week after cell injection for metastasis-initiation experiments. A 15 mg/kg dose per treatment was used for all experiments. […] Experimental group sizes were practically associated according to the number of mice housed per cage (n=5 mice per cage). […] Tumor-bearing mice were closely monitored and euthanized following health-check advice given by an independent veterinary scientist responsible for animal welfare. […] Reconstructed PET and CT data were quantitatively evaluated using VivoQuant software (inviCRO Inc.). […] The radioactivity uptake values within CT-drawn organs were obtained from mean voxel values within the ROI and converted to percentage injected dose (ID) and then divided by mouse weight (g) to obtain an imaging ROI-derived percentage of the injected radioactive dose per gram of tissue (%ID/g). […] The tumor (or tissue) to tissue (i.e. lung to liver) ratio was calculated by dividing the mean lung by the mean liver %ID/g values. To quantify the radioactivity in diseased tissues ex vivo, tissues were harvested after perfusion with PBS and counts were collected using a 2480 WIZARD2 gamma counter (Perkin Elmer Inc.). […]
The test system of assay [2] is MC26 CRC lung tumors. To be noted: mouse, in vivo.
Assay [3] concerns LS 174T tumors. Kind of assay: PET-CT imaging of low glucose uptake subcutaneous xenografts. The note with it: mouse, in vivo. The arrangement: species or system NCr nude mice.

In the case of `O=c1[nH]cc(F)c(=O)[nH]1` [5-FU, 5-Fluorouracil], the “relative lung/liver ratio of PET-CT signal, no-treatment cohort versus cohort treated with chemotherapy” value in assay [1] (two weeks of treatment, 64Cu-PRISM PET-CT) is “over 3 times”. The “effect on tumor progression compared with non-treated cohort” value in assay [1] (urinary reporter signal and PET imaging, after a single week) is on record as “significantly inhibited tumor progression”.
Take `OC[C@H]1OC(O)[C@H](F)[C@@H](O)[C@@H]1O` (stereo partly shown) [18F-FDG, 18F-2-deoxyfluoroglucose]: the “background signal in the chest / heart accumulation on PET-CT” value in assay [2] was “strong accumulation in the heart”. In addition, the “tumor uptake versus background tissue” value in assay [3] is “indistinguishable from the background tissue”.
